The text below walks through data of patent US8716303B2, “N-(hetero)aryl-pyrrolidine derivatives of pyrazol-4-yl-pyrrolo[2,3-d]pyrimidines and pyrrol-3-yl-pyrrolo[2,3-d]pyrimidines as janus kinase inhibitors” (Incyte Corporation, priority 2009, dated 2014).

The structures appear in SMILES notation. Where a name gives a salt, the structure may show the parent alone. Some results are limits rather than exact numbers.

For experiment [1], the target named is T1, human JAK1 (a.a. 837-1142) (Homo sapiens, UniProt P23458).
T1 construct: human JAK1 (a.a. 837-1142); His tag (N); made in house; host or cells: insect cells (baculovirus)
The experiment can be described thus: In vitro JAK kinase assay (HTRF, phosphorylation of a biotinylated peptide), JAK1. In kind it is biochemical. In outline:
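IC50s come from HTRF detection (Eu-Py20, SA-APC, 40 min binding) after 1 h RT reactions with 500 nM biotinylated peptide in Tris pH 7.8 buffer. ATP either 1 mM or Km-level, 90 μM for JAK1 and 30 μM for JAK2; enzymes are baculovirus-expressed His-tagged catalytic domains (JAK1 837-1142, JAK2 828-1132).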

Experiment [2] deals with T2, Jak2 (a.a. 828-1132) (Homo sapiens, UniProt O60674).
T2 construct: Jak2 (a.a. 828-1132); His tag (N); made in house; host or cells: insect cells (baculovirus)
Description: In vitro JAK kinase assay (HTRF, phosphorylation of a biotinylated peptide), JAK2, reported as JAK2/JAK1 ratio. In kind it is biochemical. A general note: Time-resolved FRET reads energy transfer from a long-lived donor to a nearby acceptor.

T2 sequence (O60674 828-1132): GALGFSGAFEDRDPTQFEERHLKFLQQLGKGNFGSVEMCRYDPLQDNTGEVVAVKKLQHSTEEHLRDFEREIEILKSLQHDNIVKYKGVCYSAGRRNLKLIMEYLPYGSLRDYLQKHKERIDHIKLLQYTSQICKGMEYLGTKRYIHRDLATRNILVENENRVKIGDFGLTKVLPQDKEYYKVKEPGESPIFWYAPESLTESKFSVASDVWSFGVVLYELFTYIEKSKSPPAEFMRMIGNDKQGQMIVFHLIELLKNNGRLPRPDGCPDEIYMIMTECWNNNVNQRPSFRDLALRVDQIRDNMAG
T1 sequence (P23458 849-1154): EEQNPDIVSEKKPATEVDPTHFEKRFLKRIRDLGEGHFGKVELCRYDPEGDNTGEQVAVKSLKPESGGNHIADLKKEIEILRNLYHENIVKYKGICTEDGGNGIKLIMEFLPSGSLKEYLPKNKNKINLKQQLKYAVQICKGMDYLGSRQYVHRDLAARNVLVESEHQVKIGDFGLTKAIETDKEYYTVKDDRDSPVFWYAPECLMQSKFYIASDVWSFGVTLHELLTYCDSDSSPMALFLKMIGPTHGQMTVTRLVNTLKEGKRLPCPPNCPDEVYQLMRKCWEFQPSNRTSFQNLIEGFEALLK

As usually defined, the IC50 is the concentration needed to halve the response being measured. `Cn1ccnc(N2CCC(C(CC#N)n3cc(-c4ncnc5[nH]ccc45)cn3)C2)c1=O` (racemic) [Example 37, ±3-[1-(4-methyl-3-oxo-3,4-dihydropyrazin-2-yl)pyrrolidin-3-yl]-3-[4-(7H-pyrrolo[2,3-d]pyrimidin-4-yl)-1H-pyrazol-1-yl]propanenitrile trifluoroacetate] showed a concentration for half-maximal inhibition (IC50) in experiment [1] (Assay Conditions 1 mM ATP) of less than 0.05 µM. Moreover, the “JAK2/JAK1 IC50 ratio” value in experiment [2] (Assay Conditions 1 mM ATP) is recorded as more than 8.7.

The compound `CC(F)c1ccnc(N2CC[C@H]([C@H](CC#N)n3cc(-c4ncnc5[nH]ccc45)cn3)C2)c1C#N` (stereo partly drawn) [Example 136, 2-((3S)-3-{(1S)-2-cyano-1-[4-(7H-pyrrolo[2,3-d]pyrimidin-4-yl)-1H-pyrazol-1-yl]ethyl}pyrrolidin-1-yl)-4-(1-fluoroethyl)nicotinonitrile trifluoroacetate] had a half-inhibitory concentration (IC50) in experiment [1] (Assay Conditions 1 mM ATP) of less than 0.05 µM. For the same compound, the “JAK2/JAK1 IC50 ratio” value in experiment [2] (Assay Conditions 1 mM ATP) is more than 5.

For the compound `N#CC[C@@H]([C@H]1CCN(c2nccc(C(F)(F)F)c2F)C1)n1cc(-c2ncnc3[nH]ccc23)cn1` [Example 66, (3S)-3-{(3S)-1-[3-fluoro-4-(trifluoromethyl)pyridin-2-yl]pyrrolidin-3-yl}-3-[4-(7H-pyrrolo[2,3-d]pyrimidin-4-yl)-1H-pyrazol-1-yl] propanenitrile trifluoroacetate salt], the IC50 in experiment [1] (Assay Conditions 1 mM ATP) is less than 0.05 µM. In experiment [2] (Assay Conditions 1 mM ATP), the “JAK2/JAK1 IC50 ratio” value is more than 20.

Take `COc1cccc(N2CC[C@H]([C@H](CC#N)n3cc(-c4ncnc5[nH]ccc45)cn3)C2)c1C#N` [Example 55, 2-((3S)-3-{(1S)-2-cyano-1-[4-(7H-pyrrolo[2,3-d]pyrimidin-4-yl)-1H-pyrazol-1-yl]ethyl}pyrrolidin-1-yl)-6-methoxybenzonitrile trifluoroacetate salt]: in experiment [1] (Assay Conditions 1 mM ATP), the IC50 is less than 0.05 µM. Besides, the “JAK2/JAK1 IC50 ratio” value in experiment [2] (Assay Conditions 1 mM ATP) was more than 8.

In experiment [1] (Assay Conditions 1 mM ATP), `C#Cc1cnc(N2CC[C@H]([C@H](CC#N)n3cc(-c4ncnc5[nH]ccc45)cn3)C2)c(C#N)n1` [Example 143, 3-((3S)-3-{(1S)-2-cyano-1-[4-(7H-pyrrolo[2,3-d]pyrimidin-4-yl)-1H-pyrazol-1-yl]ethyl}pyrrolidin-1-yl)-6-ethynylpyrazine-2-carbonitrile trifluoroacetate] displayed an IC50 of less than 0.05 µM. In addition, the “JAK2/JAK1 IC50 ratio” value in experiment [2] (Assay Conditions 1 mM ATP) was more than 4.5.

For the compound `N#CCC(C1CCN(c2ccc3ccsc3n2)C1)n1cc(-c2ncnc3[nH]ccc23)cn1` (single isomer, unassigned) [Example 156, 3-[4-(7H-pyrrolo[2,3-d]pyrimidin-4-yl)-1H-pyrazol-1-yl]-3-(1-thieno[2,3-b]pyridin-6-ylpyrrolidin-3-yl)propanenitrile], the IC50 in experiment [1] (Assay Conditions 1 mM ATP) was less than 0.05 µM. For the same compound, the “JAK2/JAK1 IC50 ratio” value in experiment [2] (Assay Conditions 1 mM ATP) stood at 8.0.

Turning to `CS(=O)(=O)c1cccc(N2CCC(C(CC#N)n3cc(-c4ncnc5[nH]ccc45)cn3)C2)c1C#N` (racemic) [Example 41, ±2-(3-{2-cyano-1-[4-(7H-pyrrolo[2,3-d]pyrimidin-4-yl)-1H-pyrazol-1-yl]ethyl}pyrrolidin-1-yl)-6-(methylsulfonyl)benzonitrile], the half-inhibitory concentration (IC50) in experiment [1] (Assay Conditions 1 mM ATP) was less than 0.05 µM. The “JAK2/JAK1 IC50 ratio” value in experiment [2] (Assay Conditions 1 mM ATP) stood at 11.

Take `N#CCC(C1CCN(c2nc3cccc(C#N)c3o2)C1)n1cc(-c2ncnc3[nH]ccc23)cn1` (single isomer, unassigned) [Example 160, 2-(3-{2-cyano-1-[4-(7H-pyrrolo[2,3-d]pyrimidin-4-yl)-1H-pyrazol-1-yl]ethyl}pyrrolidin-1-yl)-1,3-benzoxazole-7-carbonitrile]: the half-maximal inhibitory concentration (IC50) in experiment [1] (Assay Conditions 1 mM ATP) is less than 0.05 µM. Also, the “JAK2/JAK1 IC50 ratio” value in experiment [2] (Assay Conditions 1 mM ATP) is more than 11.4.

For the compound `N#CCC(n1cc(-c2ncnc3[nH]ccc23)cn1)C1(F)CCN(c2nc3cccnc3o2)C1` (single isomer, unassigned) [31, Step 4a, enantiomer 1], the IC50 in experiment [1] (Assay Conditions 1 mM ATP) lay within 0.05 to 0.1 µM. Moreover, the “JAK2/JAK1 IC50 ratio” value in experiment [2] (Assay Conditions 1 mM ATP) amounted to 5.6.

In experiment [1] (Assay Conditions 1 mM ATP), `COCc1ccnc(N2CC[C@H]([C@H](CC#N)n3cc(-c4ncnc5[nH]ccc45)cn3)C2)c1C#N` [Example 96, 2-((3S)-3-{(1S)-2-cyano-1-[4-(7H-pyrrolo[2,3-d]pyrimidin-4-yl)-1H-pyrazol-1-yl]ethyl}pyrrolidin-1-yl)-4-(methoxymethyl)nicotinonitrile tris(trifluoroacetate)] yielded an IC50 of less than 0.05 µM. The “JAK2/JAK1 IC50 ratio” value in experiment [2] (Assay Conditions 1 mM ATP) amounted to 16.3.

Turning to `N#CCC(C1CCN(c2ncc3c(c2C#N)SCC3)C1)n1ccc(-c2ncnc3[nH]ccc23)c1` (single isomer, unassigned) [Example 174-1, 6-(3-{2-cyano-1-[3-(7H-pyrrolo[2,3-d]pyrimidin-4-yl)-1H-pyrrol-1-yl]ethyl}pyrrolidin-1-yl)-2,3-dihydrothieno[3,2-c]pyridine-7-carbonitrile], the IC50 in experiment [1] (Assay Conditions 1 mM ATP) was less than 0.05 µM. For the same compound, the “JAK2/JAK1 IC50 ratio” value in experiment [2] (Assay Conditions 1 mM ATP) stood at 28.5.

In experiment [1] (Assay Conditions 1 mM ATP), `N#CC[C@@H]([C@H]1CCN(c2ncccc2C#N)C1)n1cc(-c2ncnc3[nH]ccc23)cn1` [Example 62, 2-((3S)-3-{(1S)-2-cyano-1-[4-(7H-pyrrolo[2,3-d]pyrimidin-4-yl)-1H-pyrazol-1-yl]ethyl}pyrrolidin-1-yl) nicotinonitrile trifluoroacetate salt] registered a half-inhibitory concentration (IC50) of less than 0.05 µM. Also, the “JAK2/JAK1 IC50 ratio” value in experiment [2] (Assay Conditions 1 mM ATP) came to 7.1.

As to `N#CC[C@@H]([C@H]1CCN(c2cccc(C(F)(F)F)c2C#N)C1)n1cc(-c2ncnc3[nH]ccc23)cn1` [Example 56, 2-((3S)-3-{(1S)-2-cyano-1-[4-(7H-pyrrolo[2,3-d]pyrimidin-4-yl)-1H-pyrazol-1-yl]ethyl}pyrrolidin-1-yl)-6-(trifluoromethyl)benzonitrile trifluoroacetate salt], the IC50 in experiment [1] (Assay Conditions 1 mM ATP) was less than 0.05 µM. Besides, in experiment [2] (Assay Conditions 1 mM ATP), the “JAK2/JAK1 IC50 ratio” value was more than 10.

`N#CC[C@@H]([C@H]1CCN(c2ccnc(Cl)c2C#N)C1)n1cc(-c2ncnc3[nH]ccc23)cn1` [Example 123, 2-chloro-4-((3S)-3-{(1S)-2-cyano-1-[4-(7H-pyrrolo[2,3-d]pyrimidin-4-yl)-1H-pyrazol-1-yl]ethyl}pyrrolidin-1-yl)nicotinonitrile trifluoroacetate] returned an IC50 in experiment [1] (Assay Conditions 1 mM ATP) of less than 0.05 µM. In addition, in experiment [2] (Assay Conditions 1 mM ATP), the “JAK2/JAK1 IC50 ratio” value is more than 16.7.

As for `COCc1c(F)cnc(N2CC[C@H]([C@H](CC#N)n3cc(-c4ncnc5[nH]ccc45)cn3)C2)c1C#N` [Example 95, 2-((3S)-3-{(1S)-2-cyano-1-[4-(7H-pyrrolo[2,3-d]pyrimidin-4-yl)-1H-pyrazol-1-yl]ethyl}pyrrolidin-1-yl)-5-fluoro-4-(methoxymethyl)nicotinonitrile bis(trifluoroacetate)], in experiment [1] (Assay Conditions 1 mM ATP), the IC50 was less than 0.05 µM. The “JAK2/JAK1 IC50 ratio” value in experiment [2] (Assay Conditions 1 mM ATP) turned out to be 16.4.

In experiment [1] (Assay Conditions 1 mM ATP), `N#CCC(C1CCN(c2ncc3ccsc3c2C#N)C1)n1ccc(-c2ncnc3[nH]ccc23)c1` (racemic) [Example 176-rac, 6-(3-{2-cyano-1-[3-(7H-pyrrolo[2,3-d]pyrimidin-4-yl)-1H-pyrrol-1-yl]ethyl}pyrrolidin-1-yl)thieno[3,2-c]pyridine-7-carbonitrile] came in with an IC50 of less than 0.05 µM. Further, in experiment [2] (Assay Conditions 1 mM ATP), the “JAK2/JAK1 IC50 ratio” value is 53.3.

With `CSc1ccnc(N2CC[C@H]([C@H](CC#N)n3cc(-c4ncnc5[nH]ccc45)cn3)C2)c1C#N` [Example 127, 2-((3S)-3-{(1S)-2-cyano-1-[4-(7H-pyrrolo[2,3-d]pyrimidin-4-yl)-1H-pyrazol-1-yl]ethyl}pyrrolidin-1-yl)-4-(methylthio)nicotinonitrile trifluoroacetate], the IC50 in experiment [1] (Assay Conditions 1 mM ATP) was less than 0.05 µM. The “JAK2/JAK1 IC50 ratio” value in experiment [2] (Assay Conditions 1 mM ATP) was 11.0.

Take `FCC([C@H]1CCN(c2nc3c(cc2F)CCS3)C1)n1cc(-c2ncnc3[nH]ccc23)cn1` (stereo partly drawn) [Example 85, 4-(1-{2-fluoro-1-[(3S)-1-(5-fluoro-2,3-dihydrothieno[2,3-b]pyridin-6-yl)pyrrolidin-3-yl]ethyl}-1H-pyrazol-4-yl)-7H-pyrrolo[2,3-d]pyrimidine bis(trifluoroacetate)]: in experiment [1] (Assay Conditions 1 mM ATP), the IC50 is less than 0.05 µM. Moreover, in experiment [2] (Assay Conditions 1 mM ATP), the “JAK2/JAK1 IC50 ratio” value was determined as 5.3.

`CN(C)C(=O)c1cc(N2CCC(C(CC#N)n3cc(-c4ncnc5[nH]ccc45)cn3)C2)ccn1` (single isomer, unassigned) [Example 153, 4-(3-{2-cyano-1-[4-(7H-pyrrolo[2,3-d]pyrimidin-4-yl)-1H-pyrazol-1-yl]ethyl}pyrrolidin-1-yl)-N,N-dimethylpyridine-2-carboxamide] displayed an IC50 in experiment [1] (Assay Conditions 1 mM ATP) of less than 0.05 µM. Moreover, the “JAK2/JAK1 IC50 ratio” value in experiment [2] (Assay Conditions 1 mM ATP) is recorded as more than 11.1.

On to `N#CC[C@@H]([C@H]1CCN(c2scc(C#N)c2C#N)C1)n1cc(-c2ncnc3[nH]ccc23)cn1` [Example 79, 2-((3S)-3-{(1S)-2-cyano-1-[4-(7H-pyrrolo[2,3-d]pyrimidin-4-yl)-1H-pyrazol-1-yl]ethyl}pyrrolidin-1-yl)thiophene-3,4-dicarbonitrile], for which, in experiment [1] (Assay Conditions 1 mM ATP), the IC50 is less than 0.05 µM. In addition, the “JAK2/JAK1 IC50 ratio” value in experiment [2] (Assay Conditions 1 mM ATP) was 20.0.

Take `N#CCC(C1CCN(c2nc3cccc(CO)c3o2)C1)n1cc(-c2ncnc3[nH]ccc23)cn1` (single isomer, unassigned) [Example 166, 3-{1-[7-(hydroxymethyl)-1,3-benzoxazol-2-yl]pyrrolidin-3-yl}-3-[4-(7H-pyrrolo[2,3-d]pyrimidin-4-yl)-1H-pyrazol-1-yl]propanenitrile]: the IC50 in experiment [1] (Assay Conditions 1 mM ATP) was less than 0.05 µM. The “JAK2/JAK1 IC50 ratio” value in experiment [2] (Assay Conditions 1 mM ATP) is more than 8.7.

In experiment [1] (Assay Conditions Km (ATP 90 μM for Jak1)), `N#CCC(C1CCN(c2cccc(Cl)n2)C1)n1cc(-c2ncnc3[nH]ccc23)cn1` (single isomer, unassigned) [2, Step 2a] came in with an IC50 of less than 0.05 µM. Besides, the “JAK2/JAK1 IC50 ratio” value in experiment [2] (Assay Conditions Km (ATP 90 μM for Jak1, 30 μM for Jak2)) is on record as 7.3.

In the case of `CSc1nccc(N2CCC(C(CC#N)n3cc(-c4ncnc5[nH]ccc45)cn3)C2)n1` (single isomer, unassigned) [Example 23, 3-{1-[2-(methylthio)pyrimidin-4-yl]pyrrolidin-3-yl}-3-[4-(7H-pyrrolo[2,3-d]pyrimidin-4-yl)-1H-pyrazol-1-yl]propanenitrile], in experiment [1] (Assay Conditions 1 mM ATP), the IC50 was less than 0.05 µM. Besides, in experiment [2] (Assay Conditions 1 mM ATP), the “JAK2/JAK1 IC50 ratio” value stood at 2.3.
